pIC50: −log10 of the molar value.
target: T1, human PLC-β2 (Homo sapiens, UniProt Q00722); experiment: PLC assay using FlashPlates (96-well, immobilized [3H]PIP2 substrate); assay type: biochemical; conditions: purified recombinant human PLC-β2 or cytosolic human PLC-β2; hydrolysis of [3H]PIP2
T1 construct: made in house; host or cells: Sf9 cells (Spodoptera frugiperda), recombinant baculovirus
Text: The hydrolysis of phosphatidylinositol-4,5-bisphosphate (PIP2) by a specific phospholipase C-β2 (PLC-β2) produces two intracellular messengers, diacylglycerol (DAG) and inositol 1,4,5-trisphosphate (IP3), which mediate the activation of protein kinase C and intracellular Ca^2+ release. A conventional organic solvent extraction method is widely used for PLC assays to isolate IP3 from the substrate PIP2. The conventional PLC-β2 assay, however is terminated by addition of acidified organic solvents and subsequent extraction and phase separation. […] Accordingly, a preferred method to test the compounds of the present invention, was developed utilizing a 96-well plate assay for PLC-β2 using immobilized radiolabeled substrate to quantitatively measure the reduction in the substrate level without a need for organic solvent extraction. The automated PLC-β2 assay described herein provides a convenient method for quantitative measurement of phospholipase C activities in a high throughput fashion. Ninety-six well Phospholipid FlashPlates were coated with 0.2 mL of 50 mM Tris/HCl (pH 7.4), 0.01% Ac-BSA and 50,000 cpm of […] (phosphatidylinositol-4,5-bisphosphate) at 4° C. for 72 h. The wells were aspirated and washed twice with PBS. The reactions were conducted directly in the wells in PLC reaction buffer containing 50 mM Tris/HCl (pH 7.2), 2.75 mM EDTA (pH 7.3), 80 mM KCl, 10 mM LiCl, 0.04% DOC and 2 mM CaCl2 in the absence or presence of the purified recombinant human PLC-β2 (prepared as described hereafter) or cytosolic human PLC-β2 from […]. Reduction of radioactivity was monitored by a Packard TopCount instrument (Packard Instrument Company, Conn., USA). […] The cells were grown in Grace's media supplemented with 10% (v/v) fetal bovine serum, 3.3 g/l yeastolate, 3.3 g/l lactalbumin hydrosylate, glutamine (6.4 mM final), 50 μg/ml gentamicin, and 50 μg/ml kanamycin. Suspension of Sf9 cells (1.0×10^6 cells/ml) were infected with 5 pfu/cell of recombinant baculovirus encoding PLC-β2 and incubated at 27° C. for 72 h. The cells were collected by centrifugation (500×g, 7 min, 4° C.) and disrupted by hypotonic lysis buffer containing 20 mM Tris/HCl, pH 7.4, 5 mM MgCl2, 2 mM EGTA, 200 μM PMSF, 200 μM benzamidine and 1 μM pepstatin A. The lysate was sonicated on ice and the nuclei and unbroken cells removed by centrifigation (500×g, 5 min, 4C.). The supernatant was recovered and clarified by centrifugation (34,000 rpm, 60 min, 4C.). The supernatant was used as a crude cytosolic fraction (Paterson, A., Boyer, J. L., Watts, V. J., Morris, A. J., Price, […]. (1995) Concentration of enzyme-dependent activation of PLC β1 and PLC β2 by Gα11 and βγ subunits. Cellular Signalling 7, 709-720). Crude cytosol prepared from Sf9 cells expressing PLC-β2 was purified initially by chromatography on a 10 ml column of Q-Sepharose FF, equilibrated in buffer A (25 mM HEPES, pH 7.2,2 mM DTT, 2 mM EDTA, 2 mM EGTA, 200 μM PMSF, 200 μM benzamidine, 1 μM pepstatin A containing 10 mM NaCl). The column was washed with 20 ml of equilibration buffer and eluted with a 200-ml gradient of 110-410 mM NaCl in buffer A. The fractions containing PLC activity were pooled and diluted with buffer A. The diluted enzyme was applied to a 4 ml column of heparin-SepharoseCL-6B equilibrated in buffer A and the column washed with 70 ml of buffer A. The column was eluted with 80 ml of gradient of 0-1.0 M NaCl in buffer A, the column eluate collected in 3 ml fractions. […]

T1 sequence (Q00722 whole entry): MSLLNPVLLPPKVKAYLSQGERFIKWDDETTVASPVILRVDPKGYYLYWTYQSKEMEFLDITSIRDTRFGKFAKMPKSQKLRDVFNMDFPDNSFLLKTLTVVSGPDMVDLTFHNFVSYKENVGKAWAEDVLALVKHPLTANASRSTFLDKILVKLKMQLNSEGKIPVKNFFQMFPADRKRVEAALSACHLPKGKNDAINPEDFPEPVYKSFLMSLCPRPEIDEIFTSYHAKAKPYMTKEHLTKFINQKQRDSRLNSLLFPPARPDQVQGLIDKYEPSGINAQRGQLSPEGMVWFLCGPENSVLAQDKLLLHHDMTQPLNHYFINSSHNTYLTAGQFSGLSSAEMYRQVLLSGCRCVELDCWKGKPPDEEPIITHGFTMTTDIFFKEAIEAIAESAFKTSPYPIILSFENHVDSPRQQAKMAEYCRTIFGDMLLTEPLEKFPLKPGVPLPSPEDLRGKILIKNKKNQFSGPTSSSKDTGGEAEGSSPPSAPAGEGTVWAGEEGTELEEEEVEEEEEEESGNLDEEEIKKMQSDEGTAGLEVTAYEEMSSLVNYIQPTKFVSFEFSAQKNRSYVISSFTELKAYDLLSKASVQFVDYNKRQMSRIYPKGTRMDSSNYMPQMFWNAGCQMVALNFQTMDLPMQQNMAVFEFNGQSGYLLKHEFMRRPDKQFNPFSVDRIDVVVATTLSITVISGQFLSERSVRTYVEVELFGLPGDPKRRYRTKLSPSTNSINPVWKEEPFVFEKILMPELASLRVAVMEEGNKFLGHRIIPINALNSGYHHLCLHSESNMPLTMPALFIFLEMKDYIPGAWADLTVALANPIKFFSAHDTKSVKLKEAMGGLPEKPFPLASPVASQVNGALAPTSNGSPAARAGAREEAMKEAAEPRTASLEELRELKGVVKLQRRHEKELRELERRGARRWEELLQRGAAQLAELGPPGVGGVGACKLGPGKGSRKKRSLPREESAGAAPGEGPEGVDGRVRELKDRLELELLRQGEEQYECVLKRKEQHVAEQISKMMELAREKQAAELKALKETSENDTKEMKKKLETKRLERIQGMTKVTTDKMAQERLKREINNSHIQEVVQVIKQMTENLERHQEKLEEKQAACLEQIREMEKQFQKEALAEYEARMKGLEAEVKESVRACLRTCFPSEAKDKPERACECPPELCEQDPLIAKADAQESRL

pIC50 | Compound
5.55 | NCCNC(=O)c1ccc(N2CCN(C(c3ccccc3)c3ccccc3)CC2)c(NC(=O)NC2CCCCC2)c1 [Cpd 27, N-(2-aminoethyl)-3-[[(cyclohexylamino)carbonyl]amino]-4-[4-(diphenylmethyl)-1-piperazinyl]-benzamide]
4.84 | CCCCNC(=O)Nc1cc(C(N)=O)ccc1N1CCN(C(c2ccccc2)c2ccccc2)CC1 [Cpd 12, 3-[[(butylamino)carbonyl]amino]-4-[4-(diphenylmethyl)-1-piperazinyl]-benzamide]
5.60 | O=C(Nc1ccccc1F)Nc1cc(C(=O)N2CCNCC2)ccc1N1CCN(C(c2ccccc2)c2ccccc2)CC1 [Cpd 57, N-[2-[4-(diphenylmethyl)-1-piperazinyl]-5-(1-piperazinylcarbonyl)phenyl]-N′-(2-fluorophenyl)urea]
4.86 | O=C(Nc1cc(C(=O)N2CCNCC2)ccc1N1CCN(C(c2ccccc2)c2ccccc2)CC1)NC1CCCC1 [Cpd 63, N-cyclopentyl-N′-[2-[4-(diphenylmethyl)-1-piperazinyl]-5-(1-piperazinylcarbonyl)phenyl]-urea]
5.05 | NC(=O)c1ccc(N2CCN(C(c3ccccc3)c3ccccc3)CC2)c(NC(=O)NCc2ccccc2)c1 [Cpd 6, 4-[4-(diphenylmethyl)-1-piperazinyl]-3-[[[(phenylmethyl)amino]carbonyl]amino]-benzamide]
5.89 | NC(=O)c1ccc(N2CCN(C(c3ccccc3)c3ccccc3)CC2)c(NC(=O)Nc2ccc(F)cc2)c1 [Cpd 13, 4-[4-(diphenylmethyl)-1-piperazinyl]-3-[[[(4-fluorophenyl)amino]carbonyl]amino]-benzamide]
< 5.00 | NC(=O)c1ccc(N2CCN(C(c3ccncc3)c3ccc(F)cc3)CC2)c(NC(=O)NC2CCCCC2)c1 (stereo not drawn) [Cpd 78]
< 4.60 | CC(C)(C)NC(=O)Nc1cc(C(=O)N2CCNCC2)ccc1N1CCN(C(c2ccccc2)c2ccccc2)CC1 [Cpd 62, N-(1,1-dimethylethyl)-N′-[2-[4-(diphenylmethyl)-1-piperazinyl]-5-(1-piperazinylcarbonyl)phenyl]-urea]
5.25 | CN1CCN(C(=O)c2ccc(N3CCN(C(c4ccccc4)c4ccccc4)CC3)c(NC(=O)NC3CCCCC3)c2)CC1 [Cpd 28, N-cyclohexyl-N′-[2-[4-(diphenylmethyl)-1-piperazinyl]-5-[(4-methyl-1-piperazinyl)carbonyl]-phenyl]urea]
5.01 | CN(C)CCNC(=O)c1ccc(N2CCN(C(c3ccccc3)c3ccccc3)CC2)c(NC(=O)NC2CCCCC2)c1 [Cpd 30, 3-[[(cyclohexylamino)carbonyl]amino]-N-[2-(dimethylamino)ethyl]-4-[4-(diphenylmethyl)-1-piperazinyl]-benzamide]
5.08 | C[C@H](NC(=O)Nc1cc(C(N)=O)ccc1N1CCN(C(c2ccccc2)c2ccccc2)CC1)c1ccccc1 [Cpd 11, 4-[4-(diphenylmethyl)-1-piperazinyl]-3-[[[[(1S)-1-phenylethyl]amino]carbonyl]amino]-benzamide]
5.48 | CN(C)CCNC(=O)c1ccc(N2CCN(C(c3ccccc3)c3ccccc3)CC2)c(NC(=O)Nc2ccccc2)c1 [Cpd 29, N-[2-(dimethylamino)ethyl]-4-[4-(diphenylmethyl)-1-piperazinyl]-3-[[(phenylamino)carbonyl]amino]-benzamide]
5.38 | O=C(NCc1ccccc1)Nc1cc(C(=O)N2CCNCC2)ccc1N1CCN(C(c2ccccc2)c2ccccc2)CC1 [Cpd 39, N-[2-[4-(diphenylmethyl)-1-piperazinyl]-5-(1-piperazinylcarbonyl)phenyl]-N′-(phenylmethyl)urea]
5.66 | O=C(Nc1cc(C(=O)N2CCNCC2)ccc1N1CCN(C(c2ccccc2)c2ccc(Cl)cc2)CC1)NC1CCCCC1 (stereo not drawn) [Cpd 45, N-[2-[4-[(4-chlorophenyl)phenylmethyl]-1-piperazinyl]-5-(1-piperazinylcarbonyl)phenyl]-N′-cyclohexyl-urea]
5.59 | O=C(Nc1cc(C(=O)N2CCCNCC2)ccc1N1CCN(C(c2ccccc2)c2ccccc2)CC1)NC1CCCCC1 [Cpd 25, N-cyclohexyl-N′-[2-[4-(diphenylmethyl)-1-piperazinyl]-5-[(hexahydro-1H-1,4-diazepin-1-yl)carbonyl]-phenyl]urea]

Continued, compound first:

Compound | pIC50
O=C(c1ccc(N2CCN(C(c3ccccc3)c3ccccc3)CC2)c(NC(=S)NCc2ccccc2)c1)N1CCNCC1 [Cpd 65, N-[2-[4-(diphenylmethyl)-1-piperazinyl]-5-(1-piperazinylcarbonyl)phenyl]-N′-(phenylmethyl)thiourea] | 5.21
NC(=O)c1ccc(NC(=O)Nc2ccccc2)c(N2CCN(C(c3ccccc3)c3ccccc3)CC2)c1 [Cpd 93, 3-[4-(diphenylmethyl)-1-piperazinyl]-4-[[(phenylamino)carbonyl]amino]-benzamide] | 5.74
O=C(Nc1cc(C(=O)N2CCNCC2)ccc1N1CCN(C(c2ccc(F)cc2)c2ccc(F)cc2)CC1)NC1CCCCC1 [Cpd 47, N-[2-[4-[bis(4-fluorophenyl)methyl]-1-piperazinyl]-5-(1-piperazinylcarbonyl)phenyl]-N′-cyclohexylurea] | 5.38
COc1ccccc1N1CCN(c2ccc(C(=O)N3CCNCC3)cc2NC(=O)NC2CCCCC2)CC1 [Cpd 55, N-cyclohexyl-N′-[2-[4-(2-methoxyphenyl)-1-piperazinyl]-5-(1-piperazinylcarbonyl)phenyl]-urea] | < 4.60
O=C(NC(=S)Nc1cc(C(=O)N2CCNCC2)ccc1N1CCN(C(c2ccccc2)c2ccccc2)CC1)c1ccc(Cl)cc1 [Cpd 67, N-(4-chlorobenzoyl)-N′-[2-[4-(diphenylmethyl)-1-piperazinyl]-5-(1-piperazinylcarbonyl)phenyl]-thiourea] | 5.47
O=C(Nc1ccccc1)Nc1ccc(C(=O)N2CCNCC2)cc1N1CCN(C(c2ccccc2)c2ccccc2)CC1 [Cpd 91, N-[2-[4-(diphenylmethyl)-1-piperazinyl]-4-(1-piperazinylcarbonyl)phenyl]-N′-phenyl-urea] | 5.89
NC(=O)c1ccc(N2CCN(C(c3ccncc3)c3ccc(F)cc3)CC2)c(NC(=O)Nc2ccccc2)c1 (stereo not drawn) [Cpd 77, 4-[4-[(4-fluorophenyl)-4-pyridinylmethyl]-1-piperazinyl]-3-[[(phenylamino)carbonyl]amino]-benzamide] | ~5.00
O=C(Nc1ccccc1)Nc1cc(C(=O)N2CCNCC2)ccc1N1CCN(C2c3ccccc3-c3ccccc32)CC1 [Cpd 44, N-[2-[4-(9H-fluoren-9-yl)-1-piperazinyl]-5-(1-piperazinylcarbonyl)phenyl]-N′-phenylurea] | 5.64
O=C(Nc1cc(C(=O)N2CCNCC2)ccc1N1CCN(Cc2ccccc2)CC1)NC1CCCCC1 [Cpd 52, N-cyclohexyl-N′-[2-[4-(phenylmethyl)-1-piperazinyl]-5-(1-piperazinylcarbonyl)phenyl]-urea] | < 4.60
COc1ccccc1NC(=O)Nc1cc(C(N)=O)ccc1N1CCN(C(c2ccc(F)cc2)c2ccc(F)cc2)CC1 [Cpd 17, 4-[4-[bis(4-fluorophenyl)methyl]-1-piperazinyl]-3-[[[(2-methoxyphenyl)amino]carbonyl]amino]-benzamide] | 5.55
CC(c1ccccc1)N1CCN(c2ccc(C(=O)N3CCNCC3)cc2NC(=O)Nc2ccccc2)CC1 (stereo not drawn) [Cpd 48, N-phenyl-N′-[2-[4-(1-phenylethyl)-1-piperazinyl]-5-(1-piperazinylcarbonyl)phenyl]-urea] | < 4.60
NC(=O)c1ccc(N2CCN(C(c3ccc(F)cc3)c3ccc(F)cc3)CC2)c(NC(=S)Nc2ccccc2)c1 [Cpd 22, 4-[4-[bis(4-fluorophenyl)methyl]-1-piperazinyl]-3-[[(phenylamino)thioxomethyl]amino]-benzamide] | 5.92

From US20040235855A1, “Phospholipase C inhibitors for use in treating inflammatory disorders” (priority 2003, published 2004)
